Assay [1] deals with primary neural stem cells (NSCs). The assay can be described thus: Differentiation of primary neural stem cells, βIII-tubulin fluorescence and Neurite Outgrowth Assay. Format: cell-based, SD rats. Conditions: 100 µg/mL; for neurite outgrowth (total neurite length, maximum neurite length, neurite terminals, neurite initiation points): Neurite Outgrowth Assay; for neurite outgrowth (total neurite length, maximum neurite length, neurite terminals, neurite initiation points) / mean fluorescence intensity of the neuronal marker protein βIII-tubulin: in words; for mean fluorescence intensity of the neuronal marker protein βIII-tubulin: vs blank control group. The gist of the method:
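Hippocampal NSCs from newborn SD rats, passage 3, seeded at 5×10^4 cells/mL in 2% FBS DMEM/F12 differentiation medium. Polypeptide at final 100 µg/mL (NGF 50 ng/mL positive control) for 4 days. βIII-tubulin immunofluorescence intensity and neurite outgrowth quantified by high-content imaging.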

In assay [2] the test system is neural stem cell line C17.2. The assay can be described thus: Proliferation of neural stem cell line C17.2, BrdU, high-content imaging. The class given is cell-based. Conditions: 100 µg/mL, 48 h; for Proliferation-promoting results: percentage of BrdU-positive cells, significance vs blank control group. The method, then: • (1) C17.2 cells were seeded in 96-well plates at a concentration of 1500 cells/100 µL/well. After overnight culture for cell adherence, the cells were treated with drugs; • (2) Drug treatment was applied. The final concentration of the polypeptide of the invention was 100 µg/mL. Meanwhile, butylphthalide (NBP, 5 µM) was set as the positive control. The cells were cultured in the incubator for another 48 h; • (3) BrdU was added at 44 h of treatment to a final concentration of 10 µM. Immunofluorescence staining was performed 4 h later, and the percentage of BrdU-positive cells was statistically analyzed using a high-content cell imaging analysis system.

The subject of assay [3] is Brain microvascular endothelial cells (BMECs) and brain microvascular smooth muscle cells (BMVSMCs). In words: In vitro angiogenesis assay, BMEC/BMVSMC co-culture on matrigel. Format: cell-based, mouse. Conditions: 0.1 mg/L, 48 h. The method in brief:
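Mouse BMVSMCs (5×10^3) and BMECs (1×10^3) per well, passages 3-6, co-cultured on matrigel at 37 °C, 5% CO2. After medium change on day 4, polypeptide 0.1 mg/L or VEGFA 10/15/20 ng/L for 48 h; Hoechst/Calcein AM stained, imaged by high-content screening and angiogenesis quantified.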

For the next assay, the system named is tMCAO rats. The assay can be described thus: Cortical index 14 days after ischemia-reperfusion injury. Conditions: 10 mg/kg, tail vein, treatment for 14 days, P<0.01. The class given is in vivo, SD rats. How it is done:
(§1) Experimental animals, model establishment, grouping and drug administration are the same as in Example 5.
(§2) The cortical index was calculated for each group of rats 14 days after ischemia-reperfusion injury. tMCAO rats were treated with the polypeptide compound 1 of the invention for 14 days, and the expression of PSD95 and SYP was detected by Western blot.

Another assay concerns PSD95 and SYP. In words: Western blot of PSD95 and SYP in hippocampus and cortex. The class given is in vivo, SD rats. To be noted: treatment for 14 days, vs Vehicle group, P<0.05. The method, then: as §1, §2
In general terms: Immunoblotting shows a protein as a band on a membrane.

For assay [4], the system named is primary neural stem cells (NSCs). The assay can be described thus: Differentiation of primary neural stem cells, MAP-2/GFAP immunofluorescence (Example 2.2). Conditions: 0.02, 0.1, 0.5 mg/mL, 4 days, vs control group. Format: cell-based, SD rats. How it is done:
(§3) This part of the experiment requires feeding male and female rats in advance, then extracting hippocampal neural stem cells from newborn SD rats within 24 h of birth, culturing them to P3 for identification, and then using them for experiments.
(§4) Extraction and culture of primary neural stem cells (NSCs): Hippocampal neural stem cells were extracted from neonatal SD […] 24 h after birth. The procedure is as follows: first, the neonatal rats were disinfected by soaking in 75% ethanol, then transferred to a biological safety cabinet for manipulation under aseptic conditions. After the entire brain was removed from the neonatal mouse, it was immediately placed in cold D-Hanks solution to remove non-neural tissue. Under a dissecting microscope, the meninges were carefully removed and the hippocampal structures on both sides were separated. The tissue was mechanically broken into flocculent pieces with a scalpel, pipetted, and the tissue sample was transferred to a 15 mL centrifuge tube and centrifuged at 800 rpm for 5 min. […]
Medium-sized neurospheres cultured at P3-P4 were collected, centrifuged at 800 rpm for 5 min, and the supernatant was discarded. […] Subsequently, the images were observed and collected under a fluorescence microscope, and the mean fluorescence intensities of MAP-2 and GFAP were statistically analyzed respectively.

Assay [5] shares this test system. The assay can be described thus: Proliferation of primary neural stem cells, BrdU incorporation (Example 2.1). The class given is cell-based, SD rats. To be noted: 0.02, 0.1, 0.5 mg/mL, 48 h, vs control group. The method, then:
as §3
as §4, with “separated.” for “separated. The tissue was mechanically broken into flocculent pieces with a scalpel, pipetted, and the tissue sample was transferred to a 15 mL centrifuge tube and centrifuged at 800 rpm for 5 min.”
Medium-sized neurospheres formed from P3-P4 generations were centrifuged at 800 rpm for 5 min, the supernatant was discarded, a small amount of complete medium was added and pipetted to form a single-cell suspension, the cells were resuspended, counted, and seeded at 1.0 x 10^5 cells/mL into 24-well plates coated with 25 µg/mL PLL. […] Immunofluorescence staining was performed 4 h later, and the cells were then observed and photographed under a fluorescence microscope. The BrdU-positive cell rate was statistically analyzed.
A general note: Uptake of a labelled nucleoside into DNA is a usual measure of proliferation.

The mark [6] stands for this setting: 4 days, significance vs blank control group.
The mark [7] stands for this setting: significance vs blank control group.

On to “H-ALPAGGTL-OH [Compound 15, H-Ala-Leu-Pro-Ala-Gly-Gly-Thr-Leu-OH]”, for which the “neurite outgrowth (total neurite length, maximum neurite length, neurite terminals, neurite initiation points)” value (“neurite outgrowth” below) in assay [1] (4 days) is “tendency to promote neurite outgrowth”. For the same substance, the Longest neurite length result in assay [1] (setting [6]) is reported as “* (*p < 0.05)”. The Proliferation-promoting results in assay [2] is recorded as “* (*p < 0.05)”. For the same substance, the Number of intersections entry in assay [3] (setting [7]) was “* (*p < 0.05)”. In assay [3] (vs normal group, in words), the Branch length entry is on record as “no significant effects” and the number of junctions entry is recorded as “promoting effects”.

With “H-ALPAPGTL-NH2 [Compound 10, H-Ala-Leu-Pro-Ala-Pro-Gly-Thr-Leu-NH2]”, in assay [1] (4 days), the “neurite outgrowth” value is “tendency to promote neurite outgrowth” and the “mean fluorescence intensity of the neuronal marker protein βIII-tubulin” value is on record as “tendency to enhance”. In assay [1] (setting [6]), the “Number of neurite terminals” value is given as “** (**p < 0.01)” and the Total neurite length entry is “* (*p < 0.05)”. The Proliferation-promoting results in assay [2] is “** (**p < 0.01)”. In addition, the “number of BrdU positive cells” value in assay [2] (vs blank control group, in words) is “significant increase”. Further, the Cell count entry in assay [3] (setting [7]) is reported as “* (*p < 0.05)”. Further, the cell proliferation result in assay [3] (vs normal group, in words) is given as “only promoted cell proliferation”.

With “H-ALPAPGTL-OH [Compound 1, H-Ala-Leu-Pro-Ala-Pro-Gly-Thr-Leu-OH]”, in the assay with tMCAO rats, the cortical index result is listed as “significantly increased”. Further, in assay [1] (4 days), the “neurite outgrowth” value is “promote neurite outgrowth” and the “mean fluorescence intensity of the neuronal marker protein βIII-tubulin” value is reported as “significant increase”. Also, in assay [1] (setting [6]), the Longest neurite length result is “*** (***p < 0.001)”, the “Neurite initiation points (branches)” value is recorded as “*** (***p < 0.001)”, the “Number of neurite terminals” value is listed as “*** (***p < 0.001)” and the Total neurite length result was “** (**p < 0.01)”. The “differentiation of NSCs into neuronal cells” value in assay [1] (conclusion based on the results of the two analytical methods) is on record as “promote the differentiation of NSCs into neuronal cells with stable effects”. Further, the Average fluorescence intensity result in assay [1] (βIII-tubulin, 4 days, significance vs blank control group) is recorded as “** (**p < 0.01)”. In addition, in the assay with PSD95 and SYP, the “expression of PSD95” value is recorded as “significantly increased” and the “expression of SYP” value is recorded as “significantly increased”. In assay [4], the “mean fluorescence intensity of GFAP” value is listed as “significantly elevated” and the “mean fluorescence intensity of MAP-2” value is “significantly elevated”. In addition, in assay [3] (setting [7]), the Branch length entry is “** (**p < 0.01)”, the Cell count entry is given as “*** (***p < 0.001)” and the Number of intersections result is reported as “* (*p < 0.05)”. Further, the angiogenesis-promoting effects result in assay [3] (vs normal group, in words) is listed as “exhibited angiogenesis-promoting effects”. The “percentage of BrdU-positive cells” value in assay [5] is recorded as “significantly increased”.

As to “H-LAPAPGTI-OH [Compound 20, H-Leu-Ala-Pro-Ala-Pro-Gly-Thr-Ile-OH]”, in assay [1] (4 days), the “neurite outgrowth” value is given as “tendency to promote neurite outgrowth” and the “mean fluorescence intensity of the neuronal marker protein βIII-tubulin” value was “tendency to enhance”. Besides, in assay [1] (setting [6]), the Longest neurite length result is reported as “* (*p < 0.05)” and the “Neurite initiation points (branches)” value is “* (*p < 0.05)”. Also, in assay [2], the Proliferation-promoting results is reported as “* (*p < 0.05)”. The Number of intersections result in assay [3] (setting [7]) is listed as “* (*p < 0.05)”. In assay [3] (vs normal group, in words), the Branch length entry is listed as “no significant effects” and the number of junctions entry is listed as “promoting effects”.

Source of the values: patent publication EP4806904A1, “POLYPEPTIDE AND USE THEREOF” (Sichuan Gooddoctor Panxi Pharmaceutical Co. Ltd, priority 2023, dated 2026).
